{"source": "patent US20150023953A1", "about": "“METHOD OF TREATING CANCER” (priority 2012, published 2015)", "key": {"[1]": {"test_system": "HER2+ MBC patients with recurrent brain metastases", "assay": "Clinical Trial I: pharmacogenetic association of germline SNPs with PFS/OS during lapatinib monotherapy", "assay_type": "in vivo, human", "text": "Candidate genes for this experiment are listed below.\nCox proportional hazards model with Firth method.\n(GWAS, 1M Genome-Wide SNPs (Illumina human 1M duo)). […] Examined genes were divided into three tiers as follows: […]"}, "CYP3A4": {"target": "CYP3A4 (Homo sapiens, UniProt P08684)", "sequence (P08684 whole entry)": "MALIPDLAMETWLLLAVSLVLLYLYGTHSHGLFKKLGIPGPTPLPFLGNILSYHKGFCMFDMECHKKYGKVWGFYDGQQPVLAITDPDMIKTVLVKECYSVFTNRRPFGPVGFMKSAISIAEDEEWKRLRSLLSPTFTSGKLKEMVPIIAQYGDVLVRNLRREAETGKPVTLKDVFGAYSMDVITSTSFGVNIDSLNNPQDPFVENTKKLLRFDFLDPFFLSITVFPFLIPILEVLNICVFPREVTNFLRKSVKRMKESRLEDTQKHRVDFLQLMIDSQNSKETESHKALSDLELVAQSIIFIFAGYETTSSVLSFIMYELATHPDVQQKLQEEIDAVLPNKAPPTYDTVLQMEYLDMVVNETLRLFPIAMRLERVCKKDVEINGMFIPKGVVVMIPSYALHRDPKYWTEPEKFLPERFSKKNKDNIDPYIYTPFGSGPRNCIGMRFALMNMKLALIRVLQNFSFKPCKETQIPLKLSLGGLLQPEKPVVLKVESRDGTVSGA", "details": "cited from earlier work"}, "ABCB1 (P-GP)": {"target": "ABCB1 (P-GP) (Homo sapiens, UniProt P08183)", "sequence (P08183 whole entry)": "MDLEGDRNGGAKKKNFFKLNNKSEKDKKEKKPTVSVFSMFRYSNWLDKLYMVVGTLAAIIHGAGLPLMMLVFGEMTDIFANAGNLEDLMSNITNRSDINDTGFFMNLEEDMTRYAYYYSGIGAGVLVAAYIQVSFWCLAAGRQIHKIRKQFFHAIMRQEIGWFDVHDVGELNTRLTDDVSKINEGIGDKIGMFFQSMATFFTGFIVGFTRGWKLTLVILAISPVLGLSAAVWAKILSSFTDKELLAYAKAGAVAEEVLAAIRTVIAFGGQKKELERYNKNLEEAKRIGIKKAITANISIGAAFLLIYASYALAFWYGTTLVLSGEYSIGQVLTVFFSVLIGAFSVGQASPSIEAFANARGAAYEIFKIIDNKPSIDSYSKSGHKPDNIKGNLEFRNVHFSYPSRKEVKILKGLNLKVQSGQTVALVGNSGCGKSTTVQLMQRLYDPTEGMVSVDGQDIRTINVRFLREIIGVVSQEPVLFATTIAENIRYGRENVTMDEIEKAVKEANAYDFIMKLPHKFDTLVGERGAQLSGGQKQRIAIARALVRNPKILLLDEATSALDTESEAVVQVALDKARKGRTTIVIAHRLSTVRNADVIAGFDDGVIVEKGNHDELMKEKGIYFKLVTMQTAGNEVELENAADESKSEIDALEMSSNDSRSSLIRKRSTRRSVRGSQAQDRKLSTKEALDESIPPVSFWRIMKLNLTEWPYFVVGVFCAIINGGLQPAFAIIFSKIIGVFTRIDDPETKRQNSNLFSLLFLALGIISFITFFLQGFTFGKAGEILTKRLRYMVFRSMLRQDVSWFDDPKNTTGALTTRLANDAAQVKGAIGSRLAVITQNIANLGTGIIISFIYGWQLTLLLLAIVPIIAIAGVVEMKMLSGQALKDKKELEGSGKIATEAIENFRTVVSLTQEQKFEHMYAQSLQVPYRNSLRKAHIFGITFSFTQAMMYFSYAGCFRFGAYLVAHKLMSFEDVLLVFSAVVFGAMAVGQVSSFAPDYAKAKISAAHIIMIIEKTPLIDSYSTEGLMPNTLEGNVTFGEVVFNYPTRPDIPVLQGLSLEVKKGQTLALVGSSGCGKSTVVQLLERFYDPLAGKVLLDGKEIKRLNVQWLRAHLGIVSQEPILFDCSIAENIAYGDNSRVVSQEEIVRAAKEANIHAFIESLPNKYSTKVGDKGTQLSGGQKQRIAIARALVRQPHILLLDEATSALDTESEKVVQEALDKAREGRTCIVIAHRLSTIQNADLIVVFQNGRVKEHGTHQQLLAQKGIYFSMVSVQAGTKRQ", "details": "cited from earlier work"}, "HER2+ MBC patients": {"test_system": "HER2+ MBC patients", "assay": "Meta-analysis and GWAS across Trial I and Trial II study-treatment arms", "assay_type": "in vivo, human", "details": "across the trials or study arms", "text": "(GWAS, 1M Genome-Wide SNPs (Illumina human 1M duo)). […] Examined genes were divided into three tiers as follows:\n• GWAS SNPs: Bonferroni threshold for significance p=0.05/1M=5×10-8"}, "[2]": {"test_system": "HER2+ MBC patients with disease progression following trastuzumab", "details": "Trial II", "procedure": "Fifty five single nucleotide polymorphisms (SNPs) with functional consequence in 24 candidate genes were evaluated. The assay platform used to genotype these SNPs was the Illumina Human 1M-Duo BeadChip.\nStatistical analysis of genetic associations were evaluated using an additive test. For any significant marker identified from the additive test, specific contrasts of interest between different genotypes will be explored to determine risk genotype(s). Cox proportional hazards model with Firth method. Any covariate significant at p≦0.05 in the multivariate Cox model will be included.\nTesting for associations of SNPs with progression free survival (PFS) and overall survival (OS) during lapatinib treatment was performed using Cox proportional hazards methods, with covariate adjustment.\nAssociations were evaluated using an additive genetic test, using a multivariate Cox proportional hazards model adjusting for significant clinical covariates and race/ethnicity difference. […] The primary endpoints was Progression Free Survival (PFS), where the secondary endpoint was Overall Survival (OS). […] Variants were assigned to tiers for analysis, with different association significance thresholds and these were specified prior to analysis to adjust for number of SNP tests, but not for number of endpoints and groups, as follows: • Candidate genes:"}, "ABCG2 (BCRP)": {"target": "T1, ABCG2 (BCRP) (Homo sapiens, UniProt Q9UNQ0)", "T1 sequence (Q9UNQ0 1-655)": "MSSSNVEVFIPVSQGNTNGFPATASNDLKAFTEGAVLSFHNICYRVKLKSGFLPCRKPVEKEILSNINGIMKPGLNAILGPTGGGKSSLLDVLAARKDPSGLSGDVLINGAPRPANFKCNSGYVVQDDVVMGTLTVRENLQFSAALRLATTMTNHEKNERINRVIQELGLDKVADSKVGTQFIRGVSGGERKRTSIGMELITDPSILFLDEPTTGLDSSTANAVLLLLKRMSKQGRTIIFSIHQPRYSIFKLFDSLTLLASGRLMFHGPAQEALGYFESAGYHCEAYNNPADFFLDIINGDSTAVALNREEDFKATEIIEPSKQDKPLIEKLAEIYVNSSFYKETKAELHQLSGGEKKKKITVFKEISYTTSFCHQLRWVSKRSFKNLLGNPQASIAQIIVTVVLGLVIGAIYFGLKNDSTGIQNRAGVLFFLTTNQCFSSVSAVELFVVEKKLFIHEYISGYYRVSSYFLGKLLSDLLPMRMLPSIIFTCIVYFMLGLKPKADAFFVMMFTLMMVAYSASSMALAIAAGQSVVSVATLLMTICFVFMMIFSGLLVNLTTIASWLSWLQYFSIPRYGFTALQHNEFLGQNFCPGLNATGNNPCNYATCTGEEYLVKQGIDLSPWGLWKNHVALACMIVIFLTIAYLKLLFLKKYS", "details": "cited from earlier work"}}, "data": [{"smiles": "CS(=O)(=O)CCNCc1ccc(-c2ccc3ncnc(Nc4ccc(OCc5cccc(F)c5)c(Cl)c4)c3c2)o1", "note": "[lapatinib, N-(3-chloro-4-{[(3-fluorophenyl)methyl]oxy}phenyl)-6-[5-({[2-(methylsulfonyl)ethyl]amino}methyl)-2-furanyl]-4-quinazolinamine]", "values": [{"measurement": "association of VEGFR2 rs1870377 18487A>T with OS", "setting": "[1]", "value": "not seen"}, {"measurement": "association of SNPs with progression-free survival (PFS)", "setting": "[1]; 55 SNPs in 24 candidate genes", "value": "No SNPs were statistically significantly associated"}, {"measurement": "allelic hazard ratio for overall survival (OS), VEGFA rs3025039 936C>T", "setting": "[1]; lapatinib monotherapy, improved OS for T allele carriers, range in brackets", "value": "0.21 (0.08-0.52)"}, {"measurement": "inhibitor status", "setting": "CYP3A4", "value": "inhibitor"}, {"measurement": "substrate status", "setting": "CYP3A4", "value": "substrate"}, {"measurement": "substrate status", "setting": "ABCB1 (P-GP)", "value": "(P-GP) lapatinib is substrate"}, {"measurement": "GWAS signals (p<5×10-8) with common markers (MAF>5%)", "setting": "HER2+ MBC patients", "value": "no strong signals"}, {"measurement": "association of VEGFA rs3025039 936C>T with OS", "setting": "[2]", "value": "not seen"}, {"measurement": "association of SNPs with progression-free survival (PFS)", "setting": "[2]; 55 SNPs in 24 candidate genes", "value": "No SNPs were statistically significantly associated"}, {"measurement": "allelic hazard ratio for OS, VEGFR2 rs1870377 18487A>T Q472H", "setting": "[2]; T allele carriers showing improved OS, range in brackets", "value": "0.47 (0.3-0.73)"}, {"measurement": "allelic hazard ratio for OS, carriage of either IGFR1 minor allele (rs2037448 or rs7181022) vs wild type", "setting": "[2]; carriers have poorer OS, range in brackets", "value": "5.0 (2.2-10.0)"}, {"measurement": "substrate status", "setting": "ABCG2 (BCRP)", "value": "(BCRP) lapatinib is substrate"}]}]}
